Tests used:
[1] = tested on: tensin3 IDR (mCh-IDR); test: mitochondrial pulldown, talin constructs with mCh-IDR; assay type: binding, Homo sapiens; settings: TLN1-E1770A-cBAK vs TLN1-WT-cBAK; HEK293T; three replicates
Experimental: Mitochondrial isolation from HEK293T cells was performed after 24 h of transient expression using a combined method of Qproteome Mitochondria Isolation Kit (QIAGEN) and MACS Mitochondria Isolation Kit (Miltenyi). Cells were collected in ice-cold PBS and aliquoted for the preparation of the whole-cell lysate (wcl) fraction (30%) and the mitochondrial fraction (70%). Cell lysis and homogenization of the mitochondrial fraction were performed according to the manufacturer’s instructions (QIAGEN). Magnetic anti-TOM22 microbeads (Miltenyi) were used to label mitochondria in the homogenized mitochondrial fraction for 1 h at 4°C. The labeled mitochondria were separated from a magnetic column before elution with ice-cold separation buffer (Miltenyi). The eluted mitochondria were washed and centrifuged according to the Miltenyi’s instructions. RIPA buffer (ChromoTek) was used for protein extraction from the wcl and purified mitochondria. Samples were stored at −80°C prior to western blotting.
Samples were mixed with sample buffer (4X, Invitrogen) supplemented with reducing agent (10X, Invitrogen). […] Signals were detected using goat anti-mouse IgG conjugated to IRDye 680RD (1:15,000, ab216776; Abcam) and goat anti-rabbit IgG conjugated to IRDye 800CW (1:15000, ab216773; Abcam) secondary antibodies. […] Western blot analysis and quantification were performed using ImageJ software.

[2] = tested on: HFF cells; test: endogenous tensin3 condensates on soft vs stiff PDMS, HFF cells; assay type: cell-based, human; settings: 1.5 kPa vs 28 kPa FN-coated PDMS, overnight; n = 33 and 40 cells
Experimental: Imaging dishes equipped with 40 µm-thick PDMS substrates (1.5 and 28 kPa) were purchased from ibidi. PDMS dishes were coated with 30 μg/ml FN for 1 h, followed by three washes with PBS. Dishes were incubated with DMEM for 10 min to equilibrate before cells were plated and incubated overnight at 37°C.
To establish a correlation between tensin3 expression and condensation formation, a maximum intensity Z-projection was performed on Z-stack images of NIH3T3 cells (step depth 0.2 μm). The integrated fluorescence intensity was measured by normalizing the mean pixel intensity of each cell to the average of all values in cells expressing mCh-TNS3. To measure the condensate coverage in NIH3T3 cells, the images were background-subtracted (rolling ball) and then thresholded. This was followed by the Analyse Particles function in FIJI/ImageJ to select round condensate structures (circularity 0.7–1.0) ([Bussi et al., 2023]; [Dumelie et al., 2024]) with a size larger than 0.1 μm^2. The same settings were applied to quantify the number of condensates in NIH3T3 and HFF cells.

Row | Molecule | increase in IDR pulldown vs WT talin [1] | increase in tensin3 spheres on soft vs stiff substrate [2]
1 | TLN1-E1770A-cBAK: constitutively active talin1 construct | 50% | –
2 | endogenous tensin3: endogenous tensin3 in primary human foreskin fibroblasts (protein, UniProt Q68CZ2 1-1445, looked up) Tensin-3: MEEGHGLDLTYITERIIAVSFPAGCSEESYLHNLQEVTRMLKSKHGDNYLVLNLSEKRYDLTKLNPKIMDVGWPELHAPPLDKMCTICKAQESWLNSNLQHVVVIHCRGGKGRIGVVISSYMHFTNVSASADQALDRFAMKKFYDDKVSALMQPSQKRYVQFLSGLLSGSVKMNASPLFLHFVILHGTPNFDTGGVCRPFLKLYQAMQPVYTSGIYNVGPENPSRICIVIEPAQLLKGDVMVKCYHKKYRSATRDVIFRLQFHTGAVQGYGLVFGKEDLDNASKDDRFPDYGKVELVFSATPEKIQGSEHLYNDHGVIVDYNTTDPLIRWDSYENLSADGEVLHTQGPVDGSLYAKVRKKSSSDPGIPGGPQAIPATNSPDHSDHTLSVSSDSGHSTASARTDKTEERLAPGTRRGLSAQEKAELDQLLSGFGLEDPGSSLKEMTDARSKYSGTRHVVPAQVHVNGDAALKDRETDILDDEMPHHDLHSVDSLGTLSSSEGPQSAHLGPFTCHKSSQNSLLSDGFGSNVGEDPQGTLVPDLGLGMDGPYERERTFGSREPKQPQPLLRKPSVSAQMQAYGQSSYSTQTWVRQQQMVVAHQYSFAPDGEARLVSRCPADNPGLVQAQPRVPLTPTRGTSSRVAVQRGVGSGPHPPDTQQPSPSKAFKPRFPGDQVVNGAGPELSTGPSPGSPTLDIDQSIEQLNRLILELDPTFEPIPTHMNALGSQANGSVSPDSVGGGLRASSRLPDTGEGPSRATGRQGSSAEQPLGGRLRKLSLGQYDNDAGGQLPFSKCAWGKAGVDYAPNLPPFPSPADVKETMTPGYPQDLDIIDGRILSSKESMCSTPAFPVSPETPYVKTALRHPPFSPPEPPLSSPASQHKGGREPRSCPETLTHAVGMSESPIGPKSTMLRADASSTPSFQQAFASSCTISSNGPGQRRESSSSAERQWVESSPKPMVSLLGSGRPTGSPLSAEFSGTRKDSPVLSCFPPSELQAPFHSHELSLAEPPDSLAPPSSQAFLGFGTAPVGSGLPPEEDLGALLANSHGASPTPSIPLTATGAADNGFLSHNFLTVAPGHSSHHSPGLQGQGVTLPGQPPLPEKKRASEGDRSLGSVSPSSSGFSSPHSGSTISIPFPNVLPDFSKASEAASPLPDSPGDKLVIVKFVQDTSKFWYKADISREQAIAMLKDKEPGSFIVRDSHSFRGAYGLAMKVATPPPSVLQLNKKAGDLANELVRHFLIECTPKGVRLKGCSNEPYFGSLTALVCQHSITPLALPCKLLIPERDPLEEIAESSPQTAANSAAELLKQGAACNVWYLNSVEMESLTGHQAIQKALSITLVQEPPPVSTVVHFKVSAQGITLTDNQRKLFFRRHYPVNSVIFCALDPQDRKWIKDGPSSKVFGFVARKQGSATDNVCHLFAEHDPEQPASAIVNFVSKVMIGSPKKV | – | 3.6 fold

Reference: article PMC12637021, “Talin–tensin3 interactions regulate fibrillar adhesion formation and tensin3 phase separation” (The Journal of Cell Biology, 2025)
